{"source": "patent US20260109951A1", "about": "“METHODS AND COMPOSITIONS FOR INDUCING HEMATOPOIETIC CELL DIFFERENTIATION” (FATE THERAPEUTICS, INC., priority 2022, published 2026)", "key": {"tumor": {"test_system": "tumor", "test": "anti-tumor efficacy of treated, cryopreserved iNK cells", "format": "cell-based", "settings": "treated and cryopreserved cells versus untreated or control cells, FIG. 15", "description": "Cells that have been treated with CH-223191 were cryopreserved in liquid nitrogen long term. To assess recovery of the cells from cryopreservation, the cells were thawed and cultured in B0 medium for a period of 7 days and cell counts taken during the course of this culture. […] Further, cells that have been treated with CH-223191 and cryopreserved in liquid nitrogen were further assessed for function in vitro and in vivo."}, "iPSC-derived NK cells": {"test_system": "iPSC-derived NK cells", "test": "iNK expansion by co-culture with IL21 and 41BBL expressing irK562 feeder cells", "format": "cell-based, human", "settings": "about 3 μM added at day 2 of about 7 day expansion, versus without AhR inhibitor, FIG. 14", "description": "To modulate effector cell activation during the cell expansion stage of iPSC differentiation, an AhR (aryl hydrocarbon receptor) inhibitor was discovered to improve effector cell function, including anti-tumor efficacy. iPSCs were differentiated into definitive HE cells as previously described, and were subsequently differentiated into pre-expansion NK cells, at which point they were expanded by co-culture with IL21 and 41BBL expressed by irK562 feeder cells for about 7 days. An exemplary AhR inhibitor, CH-223191 (among others such as UM729, UM171, SR1), was added to the expansion culture at day 2 with a final concentration of about 3 μM to potentiate expansion signals."}, "[1]": {"test_system": "hiPSC-derived CD34+ HE cells", "test": "hiPSC monolayer differentiation to definitive HE, flow cytometric analysis of D10 cells", "format": "cell-based, human", "procedure": "To initiate differentiation towards the hematopoietic lineage, hiPSCs were seeded as a monolayer on Day (D) 0 in the maintenance medium and allowed to adhere and expand for about 24 hours. The monolayers were maintained until around D5-D6 at which point they were dissociated into single cells and seeded as a low-density monolayer until differentiation at around D10. The D10 dissociated single cell population was sorted by FACS for further analysis and marker profiling for definitive HE characterization. Alternatively, or in addition thereto, as disclosed herein, one or more of anti-CD82, anti-CD34, and anti-CD43 antibodies were used for cell sorting the D10 cell population to obtain definitive HE cells comprising a phenotype of CD82^+, CD34^+CD82^+ or CD34^+CD43^−CD82^+, which were optionally cryopreserved in cryopreservation medium or continued with effector cell differentiation.\nThe flow cytometric analysis of D10 cells differentiated under control conditions was compared to cells differentiated under cytokine conditions that includes BMP4. RUNX1 is a transcription factor expressed in the cell and believed to be mostly associated with HE identity. The cells were gated on single/live events. The […] cells and the […] cells were then stained with anti-human antibodies and analyzed by LEGENDScreen™. […]"}, "TNF-α production": {"test_system": "TNF-α production", "settings": "previously shown; cited from earlier work"}}}
{"molecule": "Cc1ccccc1N=Nc1ccc(NC(=O)c2ccnn2C)c(C)c1", "note": "[CH-223191]", "values": [{"measurement": "anti-tumor efficacy", "setting": "tumor", "result": "enhanced anti-tumor efficacy at endpoint"}, {"measurement": "fold expansion and yield of differentiated NK cells", "setting": "iPSC-derived NK cells", "result": "greater fold expansion and yield of differentiated NK cells"}]}
{"molecule": "Fc1ccc(-c2nc(C3CCNCC3)sc2-c2ccnc(NC3CC3)n2)cc1", "note": "[DBM1285, cyclopropyl-{4-[4-(4-fluorophenyl)-2-piperidin-4-yl-thiazol-5-yl]pyrimidin-2-yl}amine]", "values": [{"measurement": "maintenance of CD82 expression (CD82+RUNX1+ subpopulation of CD34+ HE cells)", "setting": "[1]; p38 MAPK inhibitor added to composition for obtaining definitive HE cells from iPSC", "result": "beneficial to maintain CD82 expression"}, {"measurement": "TNF-α production", "setting": "TNF-α production", "result": "inhibit TNF-α production"}]}
{"molecule": "BMP4: bone morphogenetic protein, cytokine, BMP activator (protein, UniProt P12644 293-408, looked up) Bone morphogenetic protein 4: SPKHHSQRARKKNKNCRRHSLYVDFSDVGWNDWIVAPPGYQAFYCHGDCPFPLADHLNSTNHAIVQTLVNSVNSSIPKACCVPTELSAISMLYLDEYDKVVLKNYQEMVVEGCGCR", "values": [{"measurement": "specification of RUNX1+ HE", "setting": "[1]; D10 cells, cytokine conditions including BMP4 versus control conditions, FIG. 1", "result": "specification of RUNX1^+ HE is cytokine driven"}]}
